Patent EP1024807B1, “USE OF THE COMPOUND 2-METHOXYPHENYL-1-METHYL-5P-METHYLBENZOYL-PYRROL-2-ACETAMIDO ACETATE FOR THE PRODUCTION OF AN ANTI-INFLAMMATORY DRUG WITH PREVENTION OF GASTRIC HYPERSECRETION AND RENAL IMPAIRMENT” (MEDOSAN Ricerca S.r.l., priority 1997, dated 1999)

Tests used:
gastric PGE2 = assay: Effect on gastric PGE2 in the rat; format: in vivo
Text: Moreover, as with all the NSAIDs currently aveilable, it inhibits gastric PGE2 in the rat, albeit to a lesser degree than ASA (Table 7).

[1] = test system: post-traumatic arthralgia; assay: Clinical comparison in post-traumatic arthralgia; format: in vivo, man
Text: The same can be said in the treatment of post-traumatic arthralgia.

Rats [2] = assay: Diuresis in normally hydrated rats; format: in vivo
Procedure: In the course of various studies conducted on animals to show the lack of renal impairment, a test was carried out to compare the diuresis in normally hydrated rats treated orally for 8 consecutive days with amtolmeting guacyl and diclofenac, which is also a NSAID. […] It is to be stressed that the behaviour of diclofenac is completely in line with the behaviour of a NSAID as known in the art, that is to say to markedly reduce the diuresis, while that of amtolmeting guacyl is completely unforeseeable.
Repeated doses (one per day) for 8 days increased diuresis in the treated rats by 35% (see fig. 13).

patients [3] = details: 336 patients, Diclofenac 100mg, cited from earlier work; for Suspensions of treatment: number of patients, 180 days of treatment; for % of totale: suspensions of treatment, 180 days
patients [4] = assay: Clinical trials: tolerability, adverse events and suspensions of treatment; format: in vivo, man; details: 31 comparative and 6 non-comparative clinical trials, 1596 patients
Text: Interest in the amtolmetin guacyl molecule arose following a thorough analysis of the results of 31 comparative and 6 non-comparative clinical trials involving 1596 patients. […] Turthermore the physician, being aware of administering an NSAID, was expecting adverse events and could not be expected to be an impartial observer. The few cases of gastro-intestinal phenomena reported with amtolmetin guacyl were transitory and in no event accompanied by the presence of occult blood in the stools. Moreover, even in the presence of a reported side-effect it was almost never necessary to suspend treatment (0.4% of suspensions).
Following are summarized the results obtained on a total of 1596 patients in 37 clinical trials.
Confirmation of the above described advantages is the very low incidence of treatment suspension for adverse events found in clinics (Table 17), which is not the case for most of NSAIDs known in the art (Table 18).

Rats [5] = assay: Carrageenan pleurisy, exudate volume at 4 hours; format: in vivo
Procedure: Compounds were administered orally 1 hour prior to and 1 hour post pleurisy induction in a volume of 0.5 ml 1% gum tragacanth. Indomethacin was used at 3 mg/kg. MED 15 was used at 25, 50 and 100 mg/kg.
A 1% solution of carrageenan in sterile saline was prepared. The solution was placed in an incubator at 37°C for half an hour to allow complete hydration of the carrageenan. The solution was then mixed to homogeneity.
A 21Gx40mm syringe needle was reduced in length to 5mm and fitted to a 1ml syringe containing the irritant. Rats were lightly anaesthetised with halothane. Each animal was placed on its left side. The skin over the thorax was lifted with and a 1cm incision made through the skin with a pair of scissors. The wound was opened to expose the underlying muscle. Using a scalpel, a 2-3mm incision was made into the muscle of the 5th-6th intercostal space. A volume of 0.15ml of carrageenan solution was then injected into the pleural cavity. The wound was closed with a 11mm Michel clip and the animal allowed to recover from the anaesthetic. Groups of animals were killed 4 hours after pleurisy induction.
Lavage solution: One part of 3.15% trisodium citrate solution, mixed with nine parts of Hank's balanced salt solution.
Rats were killed by over exposure to carbon dioxide. For each rat the skin over the thorax was moistened with IMS alcohol. The skin over the sternum was then lifted and a 5cm cut made, to expose the musculature of the upper abdomen and thoracic cavity. The muscle overlying the xiphisternum was lifted with tissue forceps and a 1cm cut made through the muscle to reveal the cartilage. This was then lifted and the diaphragm perforated just beneath the cartilage. Two cuts were then made through the rib cage either side of the cartilage to form a flap which could be folded back to expose the thoracic cavity.
Using a syringe, 1ml of lavage fluid was introduced into the thoracic cavity. The fluid was aspirated 2-3 times with a 3ml pastette to wash the cavity, before being collected into separate 10ml conical-based plastic test-tubes. Any blood contaminated fluids were rejected.
The mass of each tube with fluid was determined. By subtracting the mass of an empty tube from these values, and assuming a density for the fluid of 1g/cm^3, the fluid volume was quantified.
Results were analysed by ANOVA followed by Bonferroni T-test. Values of p<0.05 were considered significant.
Dosing was one hour prior to and one hour post pleurisy induction and inflammation was assessed at 4 hours.

Rats [6] = assay: Adjuvant arthritis (joint diameter and patellar bone mass); format: in vivo; details: for % Change: ([left-right]/right)X100
Procedure: The drugs were administered daily by oral gavage for 4 days (day 0-3); piroxicam and MED 15 were dissolved in 5% Gum arabic + 0.01% Tween 80, and administered in a volume of 0.5ml. Piroxicam was administered as 3mg/kg and MED 15 was administered as 25, 50 and 100mg/kg doses. Table 8 bis illustrating dosage regimes. L=left stifle joint, R=Right stifle joint.
Under halothane anaesthesia, rats received 200µg of heat-killed finely ground Mycobactyerium tubercolosis in 25µl (80mg/10ml sterile saline) injected intra-articulary into the left stifle joint. The contralateral joint received 25µl 0.9% sterile saline. Control animals received 25µl of 0.9% sterile saline in both knees. SGE 50µl microsyringes with a volume lock calibrated at 25µl were used with 30G stainless steel needles. Solutions were prepared sterile, and aseptic technique was used throughout, with sterilisation of syringes between groups.
The rats were killed by carbon dioxide suffocation. The body weight was noted and the skin overlying the stifle joints was divided and the joint diameters assessed in mm using Mitutoyo vernier callipers (530-312, 0.02mm).
The patellae were dissected, weighed (Sartorius, 0.01mg) and then immersed in 1ml digestion buffer (see below) to remove soft tissue.
Digestive buffer was prepared fresh to the following formula; disodium hydrogen orthophosphate 20mM, EDTA 1mM and diothiothreitol at 2mM. Papain (EC 3.4.22.2) was added at a concentration of 6U/ml. Each patella was digested in 1ml of digestive buffer at 56°C for 4 hours. The residual paterllar bones were dried (100°C 24 hours) and weighed (Sartorius 0.01mg).
Results are presented as follows: left and right parameter alone, the difference between arthritic and contralateral control joint (left-right); and % difference between arthritic and control joints ([left-right]/right]X100).
Calculations were carried out using the spreadsheet program Lotus 123. Statistical comparisons were made between the absolute differences using INSTAT Mann Whitney unpaired two-tailed statistical test.

SMILES: CC(=O)Oc1ccccc1C(=O)O [ASA, acetyl salicylic acid, reference compound]
- %inhibition (gastric PGE2; gastric PGE2 versus controls): 86.7%
- PGE2 (ngtg^Δ tissue)±S.E. (gastric PGE2; gastric tissue, rat, controls 108.7±23.9): 14.4±4.5 nanograms for gram of tissue

SMILES: O=C(O)Cc1ccccc1Nc1c(Cl)cccc1Cl [Diclofenac, reference compound]
- duration of effect [1]: 3 h
- latency time [1]: 20 min
- time to reach peak effect [1]: 1 h
- decreased diuresis (Rats [2]; single dose, average): 10%
- diuresis (Rats [2]; treated orally for 8 consecutive days, fig. 13): clear decrease
- Suspensions of treatment (patients [3]): 63
- % of totale (patients [3]): 18,7%

SMILES: COc1ccc2c(c1)c(CC(=O)O)c(C)n2C(=O)c1ccc(Cl)cc1 [Indomethacin, reference compound]
- incidence of adverse events involving the stomach (patients [4]): ≥ 30%
- Exudate volume (Rats [5]; 3mg/kg orally 1 hour prior to and 1 hour post induction, 4 hour, control 0.94±0.04): 0.47 ± 0.11 mL
- reduction in exudate volume (Rats [5]; 3mg/kg, compared to gum tragacanth control): 50%

SMILES: Cc1cnc(NC(=O)C2=C(O)c3ccccc3S(=O)(=O)N2C)s1 [Meloxicam]
- Suspensions of treatment (patients [3]): 42
- % of totale (patients [3]): 12,4%

SMILES: CN1C(C(=O)Nc2ccccn2)=C(O)c2ccccc2S1(=O)=O [Piroxicam, reference compound]
- Swelling Diameter difference (L-R) (Rats [6]; 3mg/kg daily oral, day 0-3): 1.67 mm
- Joint diameter (mm) Left (Rats [6]; 3mg/kg daily oral, day 0-3, left = arthritic joint): 10.41 mm
- Joint diameter (mm) Right (Rats [6]; 3mg/kg daily oral, day 0-3, right = saline control joint): 8.74 mm
- % Change (Rats [6]; joint diameter, 3mg/kg daily oral): 19.15%
- % Change (Rats [6]; patellar bone mass, 3mg/kg daily oral): -27.74%
- protection against bone loss (Rats [6]; patellar bone mass, arthritic groups): greatest protection against bone loss
- Bone loss Left-Right (Rats [6]; patellar bone, 3mg/kg daily oral): -1.31 mg
- Bone mass (mg) Left (Rats [6]; patellar bone, 3mg/kg daily oral, left = arthritic joint): 3.07 mg
- Bone mass (mg) Right (Rats [6]; patellar bone, 3mg/kg daily oral, right = saline control joint): 4.21 mg
